Assay results: paper PMC11370452 (bioRxiv, 2024)

Assays:
[1] = target: GABABR (Rattus norvegicus, UniProt O88871+Q9Z0U4); assay type: cell-based; conditions: with Gαi bystander BRET sensor expression versus control
[2] = system: MOR; conditions: database annotation; cited from earlier work

Chain of GABABR (Q9Z0U4 17-960 limits assumed): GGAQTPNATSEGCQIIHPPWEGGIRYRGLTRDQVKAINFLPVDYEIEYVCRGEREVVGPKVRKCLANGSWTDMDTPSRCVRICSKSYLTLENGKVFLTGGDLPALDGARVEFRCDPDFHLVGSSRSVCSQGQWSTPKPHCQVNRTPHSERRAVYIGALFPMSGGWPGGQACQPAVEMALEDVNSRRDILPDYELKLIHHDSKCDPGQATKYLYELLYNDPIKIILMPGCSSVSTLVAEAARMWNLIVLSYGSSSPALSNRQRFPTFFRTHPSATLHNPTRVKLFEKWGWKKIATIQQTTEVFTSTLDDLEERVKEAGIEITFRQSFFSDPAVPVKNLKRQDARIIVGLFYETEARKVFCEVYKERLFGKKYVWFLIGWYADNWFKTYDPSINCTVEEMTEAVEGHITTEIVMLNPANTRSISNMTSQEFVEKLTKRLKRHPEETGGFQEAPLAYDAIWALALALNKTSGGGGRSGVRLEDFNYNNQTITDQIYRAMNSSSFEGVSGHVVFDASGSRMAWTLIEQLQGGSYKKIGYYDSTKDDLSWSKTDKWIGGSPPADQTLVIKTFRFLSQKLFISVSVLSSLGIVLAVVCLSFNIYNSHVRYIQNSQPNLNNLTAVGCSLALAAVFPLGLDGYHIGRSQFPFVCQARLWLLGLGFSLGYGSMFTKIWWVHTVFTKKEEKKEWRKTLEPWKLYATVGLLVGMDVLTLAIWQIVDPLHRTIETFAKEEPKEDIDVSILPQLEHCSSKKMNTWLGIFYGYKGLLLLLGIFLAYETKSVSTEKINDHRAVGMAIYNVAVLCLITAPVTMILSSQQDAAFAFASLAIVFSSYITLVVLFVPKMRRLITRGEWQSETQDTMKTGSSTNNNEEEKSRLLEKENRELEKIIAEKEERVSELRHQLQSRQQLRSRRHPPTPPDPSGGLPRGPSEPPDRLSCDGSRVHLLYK
Chain of GABABR (O88871 41-940 partner): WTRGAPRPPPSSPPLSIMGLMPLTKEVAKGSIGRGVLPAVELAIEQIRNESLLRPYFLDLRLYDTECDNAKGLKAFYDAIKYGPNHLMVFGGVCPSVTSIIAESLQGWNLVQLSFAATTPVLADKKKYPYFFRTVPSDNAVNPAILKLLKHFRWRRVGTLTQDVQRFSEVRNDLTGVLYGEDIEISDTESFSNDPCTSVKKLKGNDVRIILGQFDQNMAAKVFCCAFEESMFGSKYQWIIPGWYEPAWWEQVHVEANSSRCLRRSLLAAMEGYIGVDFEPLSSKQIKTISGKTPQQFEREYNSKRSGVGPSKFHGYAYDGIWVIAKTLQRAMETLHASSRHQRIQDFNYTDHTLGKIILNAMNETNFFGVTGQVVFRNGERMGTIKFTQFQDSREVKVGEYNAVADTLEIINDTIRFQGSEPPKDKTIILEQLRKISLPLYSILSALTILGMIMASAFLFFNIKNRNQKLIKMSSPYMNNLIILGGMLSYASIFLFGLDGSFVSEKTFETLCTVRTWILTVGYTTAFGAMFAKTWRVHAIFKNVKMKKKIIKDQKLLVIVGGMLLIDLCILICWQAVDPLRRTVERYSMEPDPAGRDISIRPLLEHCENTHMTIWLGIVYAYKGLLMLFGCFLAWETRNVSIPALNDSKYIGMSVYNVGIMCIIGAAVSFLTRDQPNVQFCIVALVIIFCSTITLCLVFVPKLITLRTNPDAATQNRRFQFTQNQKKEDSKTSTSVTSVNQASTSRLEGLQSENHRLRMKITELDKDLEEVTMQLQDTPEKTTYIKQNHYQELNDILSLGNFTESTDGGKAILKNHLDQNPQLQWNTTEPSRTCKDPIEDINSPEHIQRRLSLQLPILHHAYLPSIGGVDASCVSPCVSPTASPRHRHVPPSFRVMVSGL

Row | Compound | increase in the IC50 of inhibition by GABA [1] | Agonist efficacy, MOR: IUPHAR annotation [2]
1 | NCCCC(=O)O [GABA] | ~ 4 fold | 
2 | Leu-Enkephalin |  | partial agonist
